The subject of data set [1] is IL-8 secretion, OKF6/TERT cell line. Kind of data set: IL-1β-induced IL-8 secretion (ELISA) in gingival epithelial cells. Type of data set: cell-based, Human. As for the experimental part:
(§1) The oral keratinocyte cell line OKF6/TERT (obtained from Dr. James Rhinewald, Harvard University) was cultured in Keratinocyte growth medium (Lonza) with hEGF, BPE (Bovine Pituitary Extract). Cells were subcultured in 6-well dishes 18 hours before stimulation. Cells were treated with 2 μg/mL, 5 μg/mL mPE with and without IL-1β stimulation (100 ng/mL, […]) for 2 hours, 4 hours and 18 hours. THP-1 cells were grown in suspension at RPMI 1640 with 10% FBS, and stimulated similarly.
(§2) Growth medium from stimulated cultures was collected either by aspiration (from keratinocytes) or after centrifugation at 1000 rpm for 15 minutes (for THP-1 cells). Cell debris was removed by centrifugation at 8,000 g (12,000 rpm) for 10 minutes at 4° C. To quantify IL-8 levels, the Human IL-8 Single Analyte ELISArray Kit (SA bioscience, MD) was used according to the manufacturer's protocol. The Cellular Activation of Signaling ELISA kit IKBα (SA bioscience, MD) was used to quantify both phosphorylated and whole IkBα levels in OKF6/TERT cells grown in a 96-well plate. All assays were performed in duplicate.
(§3) To examine the effect of mPE on the inflammatory response, gingival epithelial cells (the OKF6/TERT cell line) and the monocytic cell line, THP-1, were treated with rhIL-1β (100 ng/ml) in the presence of increasing concentrations (0, 2, or 5 ng/ml) of mPE. Secreted levels of IL-8 were measured by ELISA. […]
On the technique in general: In an ELISA, binding on a coated surface is turned into a signal by an enzyme label.

Data set [2] deals with A. actinomycetemcomitans biofilms. Kind of data set: Activity against A. actinomycetemcomitans biofilms (XTT metabolic assay, crystal violet, plating). It is filed as cell-based, Aggregatibacter actinomycetemcomitans. As for the experimental part: Aggregatibacter actinomycetemcomitans 1005 (Aa) (obtained from Dr. Helen Schreiner, New Jersey Dental School) were cultured on TSB agar (4% trypticase soy broth, 0.6% yeast extract, 0.8% dextrose, 0.4% NaHCO3, 75 μg/mL bactracin, 5 μg/mL vancomycin) at 37° C., 10% CO2. Single colonies were inoculated to TSB broth in 75-cm^2 tissue culture flasks. Biofilm was harvest upon the 90% confluence and resuspended into 1 mL PBS. Resuspension was vortexed vigorously for 1 minute and allowed to settle for 10 minutes. The supernatant was then diluted to 2.5×10^7 before seeded to 96-well plates to obtain even biofilms. Porphyromonas gingivalis W381 (obtained from Dr. Christopher Cutler, Stony Brook University Dental School) were cultured on TSB-blood agar (3% trypticase soy broth, 5% defibrinated sheep blood, 5 hemin, 0.5 μg/mL menadione, and 0.2 mg/mL KNO3) in an anaerobic chamber (80% N2, 10% H2, and 10% CO2) at 37° C. For biofilm formation, the same protocol as Aa under anaerobic condition was used.
Aa biofilms were cultured into 96-well plates (tissue culture treated, Falcon) for 18 hours. Serial dilutions of the mimetic compounds were made in 100 μL RPMI-1640 without Phenol red and added directly to the wells. Plates were cultured at 37° C., 10% CO2 for 24 hours. Medium was removed, and cell viability was evaluated by XTT assay using the In Vitro Toxicology Assay Kit (Sigma) according to the manufacturer's protocol. Metabolic activity was measured by reading in a plate-reader at 450 nm. […] Colonies were counted after 72 hours. […]
To quantify the activity of AMP mimetics on biofilms, the activity against two bacterial species associated with periodontitis, A. actinomycetemcomitans and P. gingivalis was measured under conditions that lead to biofilm formation (Kaplan et al., J. Bacteriol. 2003, 185, 1399-1404; Davey, Periodontol 2000, 2006, 42, 27-35). […] After 24 hours, the growth medium was replaced with RPMI (without Phenol Red) and an XTT assay was carried out to quantify the metabolic activity. Metabolic activity was quantified by measuring the OD at 450 nm and 600 nm. […]
Background: Formazan colour is commonly taken as a measure of viable cells.

Data set [3] relates to phosphorylated IκB / NF-κB activation. Kind of data set: IκB phosphorylation (CASE ELISA) in OKF6/TERT cells. Type of data set: cell-based, Human. The conditions noted are these: 100 ng/ml IL-1β, 2 or 4 hours, 0, 2 or 5 μg/ml mPE, FIG. 4B. The protocol: Growth medium from stimulated cultures was collected either by aspiration (from keratinocytes) or after centrifugation at 1000 rpm for 15 minutes (for THP-1 cells). Cell debris was removed by centrifugation at 8,000 g (12,000 rpm) for 10 minutes at 4° C. To quantify IL-8 levels, the Human IL-8 Single Analyte ELISArray Kit (SA bioscience, MD) was used according to the manufacturer's protocol. The Cellular Activation of Signaling ELISA kit IKBα (SA bioscience, MD) was used to quantify both phosphorylated and whole IkBα levels in OKF6/TERT cells grown in a 96-well plate. All assays were performed in duplicate. OKF6/TERT cells were treated with mPE as above in the presence or absence of IL-1β. Total mRNA was isolated and IL-8 and hBD-2 mRNA levels were quantified by QPCR normalized to β2-Microglobulin. Levels are shown relative to the no-mPE sample for each group. The experiment was carried out in triplicate; error bars represent±SD. […] To determine whether this was due to an inhibition of NF-κB activation, gingival epithelial cells were treated with mPE in the presence or absence of 100 ng/ml IL-1β, and IκB phosphorylation levels were quantified using the CASE assay (SA Biosciences, MD), and quantified relative to total IκB levels). In particular, OKF6/TERT cells were grown in 96-well plates, treated with 100 ng/ml IL-1β for 2 or 4 hours in the presence of 0, 2 or 5 μg/ml mPE. […]

Data set [4] deals with IL-8 secretion, THP-1 cells. The data set is described as follows: IL-1β-induced IL-8 secretion (ELISA) in THP-1 cells. It is filed as cell-based, Human. As for the experimental part: as §1, §2, §3
Data set [5] deals with LPS-mediated TNF-α production, macrophage cell line. Conditions: macrophage cells; cited from earlier work.
The test system of another data set is IL-8 mRNA. Kind of data set: IL-8 mRNA levels by QPCR in OKF6/TERT cells. It is filed as cell-based, Human. Conditions: IL-1β-treated cells, normalized to β2-Microglobulin, FIG. 4A. As for the experimental part:
Total cellular RNA was isolated from cultures using QIAshredder and RNeasy Mini Kit (Qiagen Valencia, Calif.). Total RNA was reversed transcribed using Superscript II reverse transcriptase kit as described by the manufacturer (Invitrogen, CA). Quantitative PCR (qPCR) was carried out using SYBR Green in a MyiQ iCycler (Bio-Rad). A total of 1 μl of cDNA (described above) was analyzed using final concentration of 100 nM of primers, 2×SYBR Green PCR Master Mix (Applied Biosystems, Foster City, Calif., USA) in volume of 20 μl. Prmer sequences were:
Amplification was carried out for 50 cycles (95° C., 15 seconds; 60° C., 60 seconds). The relative for mRNA expression in each sample was calculated based on its Ct value comparison to Ct of a housekeeping gene. […]
To examine the effect of mPE on the inflammatory response, gingival epithelial cells (the OKF6/TERT cell line) and the monocytic cell line, THP-1, were treated with rhIL-1β (100 ng/ml) in the presence of increasing concentrations (0, 2, or 5 ng/ml) of mPE. Secreted levels of IL-8 were measured by ELISA. […] This was not a result of cytotoxicity, as cell viability (as measured by XTT assay and trypan blue exclusion) was no lower than 93-96% at the highest concentration of mPE. To determine whether this was due to an effect on IL-8 secretion or on gene regulation, mRNA was isolated from treated cells IL-8 mRNA levels were quantified by QPCR. […]

Another data set deals with P. gingivalis. The conditions noted are these: planktonic form; cited from earlier work.
Data set [6] concerns OKF6/TERT and THP-1 cells. Kind of data set: Cell viability by XTT assay and trypan blue exclusion. The conditions noted are these: highest concentration of mPE. Type of data set: cell-based, Human. The protocol:
To examine the effect of mPE on the inflammatory response, gingival epithelial cells (the OKF6/TERT cell line) and the monocytic cell line, THP-1, were treated with rhIL-1β (100 ng/ml) in the presence of increasing concentrations (0, 2, or 5 ng/ml) of mPE. Secreted levels of IL-8 were measured by ELISA. […] The experiment was carried out in quadruplicate; error bars represent±SD. The inhibition by mPE was significant at both concentrations with p<0.01. […] This was not a result of cytotoxicity, as cell viability (as measured by XTT assay and trypan blue exclusion) was no lower than 93-96% at the highest concentration of mPE. To determine whether this was due to an effect on IL-8 secretion or on gene regulation, mRNA was isolated from treated cells IL-8 mRNA levels were quantified by QPCR.

The next data set has as its system P. gingivalis biofilms. The data set is described as follows: Activity against P. gingivalis biofilms (XTT metabolic assay, crystal violet). Type of data set: cell-based, Porphyromonas gingivalis. As for the experimental part:
Aggregatibacter actinomycetemcomitans 1005 (Aa) (obtained from Dr. Helen Schreiner, New Jersey Dental School) were cultured on TSB agar (4% trypticase soy broth, 0.6% yeast extract, 0.8% dextrose, 0.4% NaHCO3, 75 μg/mL bactracin, 5 μg/mL vancomycin) at 37° C., 10% CO2. Single colonies were inoculated to TSB broth in 75-cm^2 tissue culture flasks. Biofilm was harvest upon the 90% confluence and resuspended into 1 mL PBS. Resuspension was vortexed vigorously for 1 minute and allowed to settle for 10 minutes. The supernatant was then diluted to 2.5×10^7 before seeded to 96-well plates to obtain even biofilms. […]
To test the activity against P. gingivalis biofilms, strain 381 was grown in 96-well plates under conditions (i.e., grown in a 96-well plate for 21 days in an anaerobic chamber in Brain Heart Infusion (BHI) medium) that favor biofilm formation (Davey, Periodontol 2000, 2006, 42, 27-35). mPE was added in serial dilutions, incubated anaerobically for 24 hours, and the medium was replaced with XTT in RPMI. Metabolic activity was quantified as above. To confirm the ability of XTT to measure activity in the biofilm, the growth medium was removed, and biomass was quantified by crystal violet staining, followed by destaining and quantification of the optical density. Staining was quantified by reading A600. […]

In a further data set the test system is A. actinomycetemcomitans. Conditions: planktonic form; cited from earlier work.
Data set [7] concerns oral pathogens, biofilm cultures of Streptococcus mutans. The conditions noted are these: Gram-positive and -negative, incl. S. mutans biofilm cultures; cited from earlier work.
[8] abbreviates: rhIL-1β 100 ng/ml, mPE 0, 2, or 5 ng/ml as printed, FIG. 3.

Converted amounts (≈) assume the structure as drawn. “Also recorded” adds a separate entry of the source.

Here are results for 1 compound from patent publication US20120258141A9, “Methods Of Immune Modulation” (UNIVERSITY OF MEDICINE AND DENTISTRY OF NEW JERSEY, priority 2010, published 2012).

By MIC is commonly meant the least concentration at which growth counts as inhibited.

With `NCCc1cc(Br)cc(C#Cc2cccc(C#Cc3cc(Br)cc(CCN)c3)c2)c1` [mPE], the “concentration sufficient to inhibit IL-1β-induced secretion of IL-8” value in [1] (gingival epithelial cells) and in [4] (THP-1 cells) was 2 µg/mL throughout. The “inhibition of IL-8 secretion” value in data set [1] (setting [8]) and in data set [4] (setting [8]) was “dose-dependent inhibition” throughout. Also, the “reduction of metabolic activity (XTT)” value in [2] (2-hour exposure, 16 ng/ml, FIG. 1C) worked out at 60%. Moreover, the “antimicrobial activity against biofilms (XTT metabolic activity)” value in data set [2] (24 hours, FIG. 1A) was “potent antimicrobial activity”. Also, the “reduction in viable colonies (plating) and biomass (crystal violet)” value in data set [2] (FIG. 1B) is “reduction in viable colonies paralleled the results from the XTT assay”. Further, in [3], the “IL-1β-stimulated phosphorylated IκB levels / total IκB” value is “reduction in activation of NF-κB; also recorded: rapid, dose-dependent reduction”. The “LPS-mediated TNF-α production” value in data set [5] is given as “inhibited”. Besides, in the data set with IL-8 mRNA, the “IL-8 mRNA levels” value was “inhibitory effect is at the level of gene expression”. Besides, the minimal inhibitory concentration (MIC) in the data set on P. gingivalis was 2.5 µg/mL (≈ 4.79 µM); with A. actinomycetemcomitans, 0.4 µg/mL (≈ 0.766 µM). The cell viability in [6] is 93-96%. In the data set with P. gingivalis biofilms, the “activity against biofilm cultures” value is on record as “potent activity”. Besides, the “concentration at which biofilm and metabolic activity decrease to a baseline” value with P. gingivalis biofilms (24 hours anaerobic, XTT and crystal violet, FIG. 2) was in the range of 4 to 8 µg/mL. Besides, the “activity against oral pathogens” value in data set [7] is “active”.
